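GI50 marks 50% less growth. TGI marks complete inhibition of growth.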
Key:
Assay in all cases: NCI tumour cell line growth inhibition, 384-well format; in the data active means GI50 below about 0.43 µM; inactive means the rest
UACC-62 melanoma = system: UACC-62 melanoma
NCI-H522 lung = system: NCI-H522 lung
SNB-19 CNS = system: SNB-19 CNS
HOP-92 NSCLC = system: HOP-92 NSCLC
RPMI-8226 leukemia = system: RPMI-8226 leukemia
NCI-H23 lung = system: NCI-H23 lung
DU-145 prostate = system: DU-145 prostate
UO-31 renal = system: UO-31 renal
SN12C renal = system: SN12C renal
SNB-75 CNS = system: SNB-75 CNS
SR leukemia = system: SR leukemia
OVCAR-4 ovarian = system: OVCAR-4 ovarian
U251 glioblastoma = system: U251 glioblastoma
ACHN renal = system: ACHN renal
HOP-62 NSCLC = system: HOP-62 NSCLC
CAKI-1 renal = system: CAKI-1 renal
K-562 leukemia = system: K-562 leukemia
KM12 colon = system: KM12 colon
OVCAR-8 ovarian = system: OVCAR-8 ovarian
COLO 205 colon = system: COLO 205 colon
NCI-H460 NSCLC = system: NCI-H460 NSCLC
NCI-H226 lung = system: NCI-H226 lung
NCI/ADR-RES ovarian = system: NCI/ADR-RES ovarian
HCT-116 colon = system: HCT-116 colon
M14 melanoma = system: M14 melanoma
SF-539 CNS = system: SF-539 CNS
786-0 renal = system: 786-0 renal
HL-60(TB) leukemia = system: HL-60(TB) leukemia
EKVX NSCLC = system: EKVX NSCLC
MOLT-4 leukemia = system: MOLT-4 leukemia
BT-549 breast = system: BT-549 breast
SW-620 colon = system: SW-620 colon
MCF7 breast = system: MCF7 breast
MDA-MB-231 breast = system: MDA-MB-231 breast
MALME-3M melanoma = system: MALME-3M melanoma
HCC-2998 colon = system: HCC-2998 colon
SF-295 CNS = system: SF-295 CNS
RXF 393 renal = system: RXF 393 renal
PC-3 prostate = system: PC-3 prostate
LOX IMVI melanoma = system: LOX IMVI melanoma
SF-268 CNS = system: SF-268 CNS
SK-MEL-5 melanoma = system: SK-MEL-5 melanoma
CCRF-CEM leukemia = system: CCRF-CEM leukemia
A549 NSCLC = system: A549 NSCLC
MDA-MB-435 melanoma = system: MDA-MB-435 melanoma
HS 578T breast = system: HS 578T breast
SK-MEL-2 melanoma = system: SK-MEL-2 melanoma

CS(=O)(=O)c1ccc(Oc2cc(F)cc(C#N)c2)c2c1[C@H](O)C(F)(F)C2
> 100 µM: TGI (UACC-62 melanoma) | TGI (NCI-H522 lung) | TGI (SNB-19 CNS) | TGI (HOP-92 NSCLC) | TGI (RPMI-8226 leukemia) | TGI (NCI-H23 lung) | TGI (DU-145 prostate) | TGI (UO-31 renal) | TGI (SN12C renal) | TGI (SNB-75 CNS) | TGI (SR leukemia) | TGI (OVCAR-4 ovarian) | TGI (U251 glioblastoma) | TGI (ACHN renal) | TGI (HOP-62 NSCLC) | TGI (CAKI-1 renal) | TGI (K-562 leukemia) | TGI (KM12 colon) | TGI (OVCAR-8 ovarian) | TGI (COLO 205 colon) | TGI (NCI-H460 NSCLC) | TGI (NCI-H226 lung) | TGI (NCI/ADR-RES ovarian) | TGI (HCT-116 colon) | TGI (M14 melanoma) | TGI (SF-539 CNS) | TGI (786-0 renal) | TGI (HL-60(TB) leukemia) | TGI (EKVX NSCLC) | TGI (MOLT-4 leukemia) | TGI (BT-549 breast) | TGI (SW-620 colon) | TGI (MCF7 breast) | TGI (MDA-MB-231 breast) | TGI (MALME-3M melanoma) | TGI (HCC-2998 colon) | TGI (SF-295 CNS) | TGI (RXF 393 renal) | TGI (PC-3 prostate) | TGI (LOX IMVI melanoma) | TGI (SF-268 CNS) | TGI (SK-MEL-5 melanoma) | TGI (CCRF-CEM leukemia) | TGI (A549 NSCLC) | TGI (MDA-MB-435 melanoma) | TGI (HS 578T breast) | TGI (SK-MEL-2 melanoma)
inactive: GI50 (UACC-62 melanoma) > 100 µM | GI50 (NCI-H522 lung) > 100 µM | GI50 (SNB-19 CNS) > 100 µM | GI50 (HOP-92 NSCLC) > 100 µM | GI50 (RPMI-8226 leukemia) > 100 µM | GI50 (NCI-H23 lung) > 100 µM | GI50 (DU-145 prostate) > 100 µM | GI50 (UO-31 renal) > 100 µM | GI50 (SN12C renal) > 100 µM | GI50 (SNB-75 CNS) > 100 µM | GI50 (SR leukemia) > 73.6 µM | GI50 (OVCAR-4 ovarian) > 100 µM | GI50 (U251 glioblastoma) > 100 µM | GI50 (ACHN renal) > 100 µM | GI50 (HOP-62 NSCLC) > 100 µM | GI50 (CAKI-1 renal) > 78.9 µM | GI50 (K-562 leukemia) > 100 µM | GI50 (KM12 colon) > 100 µM | GI50 (OVCAR-8 ovarian) > 100 µM | GI50 (COLO 205 colon) > 100 µM | GI50 (NCI-H460 NSCLC) > 100 µM | GI50 (NCI-H226 lung) > 100 µM | GI50 (NCI/ADR-RES ovarian) > 100 µM | GI50 (HCT-116 colon) > 100 µM | GI50 (M14 melanoma) > 100 µM | GI50 (SF-539 CNS) > 100 µM | GI50 ([…]-0 renal) > 100 µM | GI50 (HL-60(TB) leukemia) > 66 µM | GI50 (EKVX NSCLC) > 100 µM | GI50 (MOLT-4 leukemia) > 86.1 µM | GI50 (BT-549 breast) > 100 µM | GI50 (SW-620 colon) > 100 µM | GI50 (MCF7 breast) > 100 µM | GI50 (MDA-MB-231 breast) > 100 µM | GI50 (MALME-3M melanoma) > 100 µM | GI50 (HCC-2998 colon) > 100 µM | GI50 (SF-295 CNS) > 100 µM | GI50 (RXF 393 renal) > 100 µM | GI50 (PC-3 prostate) > 100 µM | GI50 (LOX IMVI melanoma) > 100 µM | GI50 (SF-268 CNS) > 100 µM | GI50 (SK-MEL-5 melanoma) > 100 µM | GI50 (CCRF-CEM leukemia) > 100 µM | GI50 (A549 NSCLC) > 100 µM | GI50 (MDA-MB-435 melanoma) > 100 µM | GI50 (HS 578T breast) > 100 µM | GI50 (SK-MEL-2 melanoma) > 100 µM

CC(C)n1c(=O)n(C)c2cnc3cc(F)c(-c4ccc(OCCCN5CCCCC5)nc4)cc3c21
27.4 µM: TGI (HS 578T breast)
inactive: GI50 (UACC-62 melanoma) 31.9 µM | GI50 (NCI-H522 lung) 20.8 µM | GI50 (SNB-19 CNS) > 95.5 µM | GI50 (HOP-92 NSCLC) > 54.4 µM | GI50 (RPMI-8226 leukemia) 6.13 µM | GI50 (NCI-H23 lung) > 77.1 µM | GI50 (DU-145 prostate) > 89.7 µM | GI50 (UO-31 renal) 83.8 µM | GI50 (SN12C renal) 25.8 µM | GI50 (SNB-75 CNS) 20.6 µM | GI50 (SR leukemia) 7.14 µM | GI50 (OVCAR-4 ovarian) > 100 µM | GI50 (U251 glioblastoma) > 70.8 µM | GI50 (ACHN renal) > 60.2 µM | GI50 (HOP-62 NSCLC) > 33.2 µM | GI50 (CAKI-1 renal) 16.7 µM | GI50 (K-562 leukemia) 4.93 µM | GI50 (KM12 colon) 4.57 µM | GI50 (OVCAR-8 ovarian) > 43.4 µM | GI50 (COLO 205 colon) > 100 µM | GI50 (NCI-H460 NSCLC) 18.6 µM | GI50 (NCI-H226 lung) 14.3 µM | GI50 (NCI/ADR-RES ovarian) > 100 µM | GI50 (HCT-116 colon) 21.7 µM | GI50 (M14 melanoma) > 75.7 µM | GI50 (SF-539 CNS) > 84.1 µM | GI50 ([…]-0 renal) > 77.4 µM | GI50 (HL-60(TB) leukemia) 11.8 µM | GI50 (EKVX NSCLC) 11.6 µM | GI50 (MOLT-4 leukemia) 5.66 µM | GI50 (BT-549 breast) 9.56 µM | GI50 (SW-620 colon) 19.5 µM | GI50 (MCF7 breast) > 56.4 µM | GI50 (MDA-MB-231 breast) 36.3 µM | GI50 (MALME-3M melanoma) > 100 µM | GI50 (HCC-2998 colon) 30.5 µM | GI50 (SF-295 CNS) > 100 µM | GI50 (RXF 393 renal) > 63.4 µM | GI50 (PC-3 prostate) 19.6 µM | GI50 (LOX IMVI melanoma) 72.5 µM | GI50 (SF-268 CNS) 45.4 µM | GI50 (SK-MEL-5 melanoma) > 38.4 µM | GI50 (CCRF-CEM leukemia) 10.1 µM | GI50 (A549 NSCLC) > 100 µM | GI50 (MDA-MB-435 melanoma) > 100 µM | GI50 (HS 578T breast) 3.91 µM | GI50 (SK-MEL-2 melanoma) 35.2 µM
42.1 µM: TGI (RPMI-8226 leukemia)
> 82 µM: TGI (NCI-H522 lung)
47 µM: TGI (HL-60(TB) leukemia)
> 46.7 µM: TGI (CCRF-CEM leukemia)
> 70 µM: TGI (SK-MEL-2 melanoma)
> 46.8 µM: TGI (K-562 leukemia)
> 40.4 µM: TGI (MOLT-4 leukemia)
> 100 µM: TGI (UACC-62 melanoma) | TGI (SNB-19 CNS) | TGI (HOP-92 NSCLC) | TGI (NCI-H23 lung) | TGI (DU-145 prostate) | TGI (UO-31 renal) | TGI (SN12C renal) | TGI (SNB-75 CNS) | TGI (OVCAR-4 ovarian) | TGI (U251 glioblastoma) | TGI (ACHN renal) | TGI (HOP-62 NSCLC) | TGI (KM12 colon) | TGI (OVCAR-8 ovarian) | TGI (COLO 205 colon) | TGI (NCI-H460 NSCLC) | TGI (NCI-H226 lung) | TGI (NCI/ADR-RES ovarian) | TGI (HCT-116 colon) | TGI (M14 melanoma) | TGI (SF-539 CNS) | TGI (786-0 renal) | TGI (EKVX NSCLC) | TGI (BT-549 breast) | TGI (MCF7 breast) | TGI (MDA-MB-231 breast) | TGI (MALME-3M melanoma) | TGI (SF-295 CNS) | TGI (RXF 393 renal) | TGI (PC-3 prostate) | TGI (LOX IMVI melanoma) | TGI (SF-268 CNS) | TGI (SK-MEL-5 melanoma) | TGI (A549 NSCLC) | TGI (MDA-MB-435 melanoma)
> 80.3 µM: TGI (HCC-2998 colon)
> 75.8 µM: TGI (SW-620 colon)
19.4 µM: TGI (SR leukemia)
> 95.8 µM: TGI (CAKI-1 renal)
